Test: DPPH radical scavenging antioxidant test
Format: biochemical
Details: 517 nm; for Inhibition (radical scavenging inhibition): 0.2 mL DPPH (0.75 mM), compound 3 μM in ethanol, 30 min incubation in the dark
Description: The antioxidant properties of the 8-[(2-hydroxynaphthalen-1-yl)diazenyl]naphthalene-1,3-disulfonic acid were studied by adding 0.2 mL DPPH (0.75 mM)) to compound 8-[(2-hydroxynaphthalen-1-yl)diazenyl]naphthalene-1,3-disulfonic acid (III) (3 μM) in ethanol. After 30 min of incubation in the dark, the absorbance was read against a blank at 517 nm. Ascorbic acid (vitamin C) was used as standard antioxidants (positive control). A blank sample was prepared by 0.2 ml of DPPH in 3 ml ethanol. A negative control sample was run using ethanol instead of the sample. The radical scavenging inhibition was calculated using the following equation: […]
The antioxidant activity for the synthesized compound is listed in Table 1, using Vitamin C as a reference.

| SMILES | Inhibition (radical scavenging inhibition) [%] | antioxidant potential compared to vitamin C (DPPH in vitro test, vitamin C as positive control) |
| --- | --- | --- |
| O=S(=O)(O)c1cc(S(=O)(=O)O)c2c(/N=N/c3c(O)ccc4ccccc34)cccc2c1 [Product III, 8-[(2-hydroxynaphthalen-1-yl)diazenyl]naphthalene-1,3-disulfonic acid] | 54 | high potential as an antioxidant compared to vitamin C |
| O=C1O[C@H]([C@@H](O)CO)C(O)=C1O [vit c, Ascorbic acid, reference compound] | 74 | – |
